Like-named read-outs stand apart in the source and are kept apart here.
Key:
[1] = cited from earlier work
[2] = 80 mg/day or placebo, NASH patients; cited from earlier work
[3] = rodent models of NAFLD/NASH; cited from earlier work
[4] = healthy subjects, cited from earlier work
[5] = dyslipidemic subjects with abdominal obesity; cited from earlier work
[6] = genetically obese ob/ob mice; cited from earlier work
[7] = development discontinued; cited from earlier work
[8] = normal mice; cited from earlier work
[9] = Example: subjects with NAFLD or NASH treated with MBX-8025 for 6 months; type: in vivo, human; details: 50 or 100 mg/day for 6 months
Description: Subjects are permitted their usual other medications (e.g. antidiabetic medications such as metformin or […]) but not glitazones, PPAR agonists, OCA, or similar medications. […] At each visit, after a 12-hour fast, blood is drawn and urine collected; and a standard metabolic panel, complete blood count, and standard urinalysis are performed. Blood is analyzed for total cholesterol, HDL-C, LDL-C, VLDL-C, TGs, apoB, and liver transaminases. The subjects also maintain health diaries, which are reviewed at each visit.

[10] = cited from earlier work; remark: listed apart in the source
PPARα = target: T1, PPARα (Homo sapiens, UniProt Q07869); assay: Specificity of MBX-8025 compared with PPARα; type: biochemical
T1 sequence (Q07869 1-468): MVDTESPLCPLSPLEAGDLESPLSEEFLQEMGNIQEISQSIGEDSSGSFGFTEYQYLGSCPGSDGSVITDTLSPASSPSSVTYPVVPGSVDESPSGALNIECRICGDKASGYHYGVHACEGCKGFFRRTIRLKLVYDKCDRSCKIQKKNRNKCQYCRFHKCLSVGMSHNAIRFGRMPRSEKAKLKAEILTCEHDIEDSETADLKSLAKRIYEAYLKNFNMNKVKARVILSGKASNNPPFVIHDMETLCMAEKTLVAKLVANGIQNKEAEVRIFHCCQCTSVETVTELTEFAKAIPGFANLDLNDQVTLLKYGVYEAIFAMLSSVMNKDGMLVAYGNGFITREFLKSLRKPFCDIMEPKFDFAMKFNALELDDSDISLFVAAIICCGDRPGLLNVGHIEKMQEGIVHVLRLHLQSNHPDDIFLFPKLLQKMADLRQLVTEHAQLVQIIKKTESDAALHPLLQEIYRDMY

[11] = NAFLD/NASH; cited from earlier work
[12] = both women and men; cited from earlier work

Structure (SMILES): CSc1ccc(C(=O)/C=C/c2cc(C)c(OC(C)(C)C(=O)O)c(C)c2)cc1 [GFT505]
- liver dysfunction markers including ALT, ALP and GGT ([1]; clinical studies): decrease
- lipid-modifying efficacy (reduction in TGs, non-HDL-C, total cholesterol, LDL-C, apoB; increases in HDL-C) ([1]; healthy subjects and patients with T2DM, abdominal obesity, dyslipidemia, pre-diabetes, insulin resistance): confirmed
- interim safety analysis at 6 months [2]: no safety issue
- hepatic steatosis, inflammation, fibrosis and liver dysfunction markers [3]: decreased

Structure (SMILES): Cc1cc(SCc2sc(-c3ccc(C(F)(F)F)cc3)nc2C)ccc1OCC(=O)O [GW510516]
- reduction in hepatic fat ([4]; one of the Phase 1 studies): 20%
- TGs, LDL-C, apoB, and insulin levels ([4]; two Phase 1 studies): reduce
- decrease in fasting TGs [5]: 30%
- decrease in fasting insulin [5]: 11%
- reduction in LDL-C [5]: 23%
- reduction in apoB [5]: 26%
- reduction in fasting non-esterified fatty acids [5]: 40%
- reduction in hepatic fat [5]: 20%
- diabetes (glucose and insulin levels) [6]: markedly improved
- association with cancers in animal studies [7]: rapid development of cancers in several organs
- diet-induced obesity and insulin resistance [8]: ameliorated

Structure (SMILES): CCO[C@H](COc1ccc(C(F)(F)F)cc1)CSc1ccc(OCC(=O)O)c(C)c1 [MBX-8025, (R)-2-(4-((2-ethoxy-3-(4-(trifluoromethyl)phenoxy)propyl)-thio)-2-methylphenoxy)acetic acid]
- improvement in disease as manifested by MRI and liver biopsy [9]: dose-related improvement
- reduction in LDL-C in the tertile with the highest starting LDL-C levels (187-205 mg/dL) ([10]; 100 mg/day): 35%
- reduction of LDL-C over the total population treated ([10]; 100 mg/day): 22%
- reduction (decrease) of LDL-S/VS ([10]; 8 weeks): 40-48%
- reduction of apoB100 compared to placebo ([10]; MBX-8025 50 or 100 mg alone and in combination with atorvastatin 20 mg, 8 weeks, P<0.05): 20-38%
- raise of HDL-C ([10]; MBX-8025 alone and in combination with atorvastatin, 8 weeks): 1-12%
- insulin sensitivity (HOMA-IR, fasting plasma glucose, and insulin) ([10]; in vivo): increases insulin sensitivity
- specificity for PPARδ compared with PPARα receptor (PPARα): > 600 fold

Structure (SMILES): CC(C)c1c(C(=O)Nc2ccccc2)c(-c2ccccc2)c(-c2ccc(F)cc2)n1CC[C@@H](O)C[C@@H](O)CC(=O)O [atorvastatin]
- reduction (decrease) of LDL-S/VS ([10]; 8 weeks): 25%

Structure (SMILES): CCCCCCCCCCC[C@@H](C[C@@H]1OC(=O)[C@H]1CCCCCC)OC(=O)[C@H](CC(C)C)NC=O [orlistat]
- benefit compared to weight loss alone (diet and exercise) [11]: no significant benefit

Structure (SMILES): CCc1ccc(CCOc2ccc(CC3SC(=O)NC3=O)cc2)nc1 (centres unmarked) [pioglitazone]
- risk of weight gain, edema, congestive heart failure, and osteoporotic fractures [12]: significantly increased risk
